Test results reported in patent US20210070748A1, “INHIBITORS OF BRUTONS TYROSINE KINASE” (Pharmacyclics LLC, priority 2015, published 2021).

Columns and labels:
TEC = target: T1, TEC (Homo sapiens, UniProt P42680); assay: Inhibition of a panel of kinases, in vitro HotSpot kinase assay: TEC; type: biochemical
T1 sequence (P42680 1-631): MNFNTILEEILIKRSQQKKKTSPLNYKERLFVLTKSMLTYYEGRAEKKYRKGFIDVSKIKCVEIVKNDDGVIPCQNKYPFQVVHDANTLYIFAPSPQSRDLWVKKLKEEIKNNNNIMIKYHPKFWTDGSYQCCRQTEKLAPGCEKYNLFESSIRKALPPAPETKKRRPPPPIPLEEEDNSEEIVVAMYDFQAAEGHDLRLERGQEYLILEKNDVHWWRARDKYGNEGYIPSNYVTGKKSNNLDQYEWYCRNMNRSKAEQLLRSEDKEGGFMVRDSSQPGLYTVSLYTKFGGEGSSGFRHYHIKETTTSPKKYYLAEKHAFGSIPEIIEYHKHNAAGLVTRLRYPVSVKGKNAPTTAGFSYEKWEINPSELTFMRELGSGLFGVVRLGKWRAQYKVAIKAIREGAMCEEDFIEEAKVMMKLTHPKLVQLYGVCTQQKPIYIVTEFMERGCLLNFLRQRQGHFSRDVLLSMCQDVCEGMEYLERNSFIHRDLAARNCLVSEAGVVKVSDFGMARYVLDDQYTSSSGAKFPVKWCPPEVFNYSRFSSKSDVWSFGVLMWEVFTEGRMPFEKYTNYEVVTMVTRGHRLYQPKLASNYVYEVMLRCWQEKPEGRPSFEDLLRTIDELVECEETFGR
Description: (§1) The degree of inhibition of a panel of kinases is determined using the in vitro HotSpot kinase assay (purified enzymes, ^33P-ATP, an appropriate substrate and 1 μM ATP).

ITK = target: T2, ITK (Homo sapiens, UniProt Q08881); assay: Inhibition of a panel of kinases, in vitro HotSpot kinase assay: ITK; type: biochemical
T2 sequence (Q08881 1-620): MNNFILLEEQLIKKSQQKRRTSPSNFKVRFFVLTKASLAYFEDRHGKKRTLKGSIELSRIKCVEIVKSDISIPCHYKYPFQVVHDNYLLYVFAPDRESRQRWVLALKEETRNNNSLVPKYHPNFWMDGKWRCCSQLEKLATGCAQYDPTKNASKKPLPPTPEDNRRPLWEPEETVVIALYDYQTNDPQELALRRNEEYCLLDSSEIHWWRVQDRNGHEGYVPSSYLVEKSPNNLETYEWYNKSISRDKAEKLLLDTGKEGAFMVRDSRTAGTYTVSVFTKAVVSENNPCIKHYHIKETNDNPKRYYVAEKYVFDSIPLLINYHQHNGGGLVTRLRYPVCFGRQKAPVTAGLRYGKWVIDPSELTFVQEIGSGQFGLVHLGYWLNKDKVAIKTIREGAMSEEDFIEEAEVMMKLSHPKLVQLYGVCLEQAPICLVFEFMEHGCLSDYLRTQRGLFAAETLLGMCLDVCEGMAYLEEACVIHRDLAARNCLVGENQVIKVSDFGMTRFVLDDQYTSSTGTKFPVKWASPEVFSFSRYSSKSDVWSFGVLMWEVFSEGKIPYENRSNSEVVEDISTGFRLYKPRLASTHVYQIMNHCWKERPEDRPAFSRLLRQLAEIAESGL
Description: as §1

[1] = D-compounds panel data, 1 μM ATP

SMILES | IC50 (TEC; [1]) | IC50 (ITK; [1]) | IC50 (TEC; E compounds, Table 17) | IC50 (ITK; E compounds, Table 17)
C[C@@H]1[C@H](NC(=O)c2ccc(C(C)(C)C#N)cc2)CCCN1c1cnc(C(N)=O)c(Nc2cnn(C)c2)n1 [Example D-88, 5-[(2R,3R)-3-[4-(1-cyano-1-methylethyl)benzamido]-2-methylpiperidin-1-yl]-3-[(1-methyl-1H-pyrazol-4-yl)amino]pyrazine-2-carboxamide] | 0.01 to 0.1 µM | 0.1 to 1 µM |  | 
Cc1cc(Nc2nc(N3C[C@H](NC(=O)c4ccc(C5CC5)cc4F)CC[C@H]3C)cnc2C(N)=O)sn1 [Example D-79, 5-[(2R,5R)-5-(4-cyclopropyl-2-fluorobenzamido)-2-methylpiperidin-1-yl]-3-[(3-methyl-1,2-thiazol-5-yl)amino]pyrazine-2-carboxamide] | > 10 µM | > 10 µM |  | 
CN(C)C(=O)N[C@@H]1CCCN(c2cnc(C(N)=O)c(Nc3ccc(C4(C)CCN(C5CCCC5)CC4)cc3)n2)[C@@H]1CO [Example D-58, 3-{[4-(1-cyclopentyl-4-methylpiperidin-4-yl)phenyl]amino}-5-[(2S,3R)-3-[(dimethylcarbamoyl)amino]-2-(hydroxymethyl)piperidin-1-yl]pyrazine-2-carboxamide] | 0.1 to 1 µM | 1 to 10 µM |  | 
C[C@@H]1[C@H](NC(=O)c2ccc(C3CC3)cc2F)CCCN1c1cnc(C(N)=O)c(Nc2ccc(C3(C)CCN(C4CCCC4)CC3)cc2)n1 [Example D-66, 3-{[4-(1-cyclopentyl-4-methylpiperidin-4-yl)phenyl]amino}-5-[(2R,3R)-3-(4-cyclopropyl-2-fluorobenzamido)-2-methylpiperidin-1-yl]pyrazine-2-carboxamide] | ≤ 0.01 µM | 0.01 to 0.1 µM |  | 
Cn1cc(Nc2nc(N3CCC[C@H]4[C@@H]3CCCN4C(=O)c3ccc(C4CC4)cc3)cnc2C(N)=O)cn1 [Example D-47, 5-[(4aS,8aS)-5-(4-cyclopropylbenzoyl)-decahydro-1,5-naphthyridin-1-yl]-3-[(1-methyl-1H-pyrazol-4-yl)amino]pyrazine-2-carboxamide] | 1 to 10 µM | > 10 µM |  | 
C=CC(=O)N1CCC[C@@H](Nc2cnc(C(N)=O)c(Nc3ccc(C4CCN(C5CCCC5)CC4)cc3)n2)C1 [Example E-108, (R)-5-(1-acryloylpiperidin-3-ylamino)-3-(4-(1-cyclopentylpiperidin-4-yl)phenylamino)pyrazine-2-carboxamide] |  |  | ≤ 0.01 µM | ≤ 0.01 µM
CN(C)C(=O)N[C@H]1CCCN(c2cnc(C(N)=O)c(Nc3ccc4ncccc4c3)n2)[C@H]1CO (racemic) [Example D-65, cis 5-[3-[(dimethylcarbamoyl)amino]-2-(hydroxymethyl)piperidin-1-yl]-3-[(quinolin-6-yl)amino]pyrazine-2-carboxamide] | 1 to 10 µM | > 10 µM |  | 
Cn1cc(Nc2nc(N3C[C@H](CO)C[C@H](NC(=O)c4ccc(C5CC5)cc4)C3)cnc2C(N)=O)cn1 (racemic) [Example D-43, (racemic)-cis-5-[3-(4-cyclopropylbenzamido)-5-(hydroxymethyl)piperidin-1-yl]-3-[(1-methyl-1H-pyrazol-4-yl)amino]pyrazine-2-carboxamide] | 0.01 to 0.1 µM | 0.1 to 1 µM |  | 
Cc1cc(Nc2nc(N3CCC[C@@H](NC(=O)c4ccc(C5CC5)cc4F)C3)cnc2C(N)=O)on1 [Example D-2, 5-[(3R)-3-(4-cyclopropyl-2-fluorobenzamido)piperidin-1-yl]-3-[(3-methyl-1,2-oxazol-5-yl)amino]pyrazine-2-carboxamide] | 1 to 10 µM | > 10 µM |  | 
Cn1cc(Nc2nc(N3CCC[C@@H]4[C@H]3CCCN4C(=O)c3ccc(C4CC4)cc3)cnc2C(N)=O)cn1 [Example D-46, 5-I[(4aR,8aR)-5-(4-cyclopropylbenzoyl)-decahydro-1,5-naphthyridin-1-yl]-3-[(1-methyl-1H-pyrazol-4-yl)amino]pyrazine-2-carboxamide] | 0.01 to 0.1 µM | 1 to 10 µM |  | 
CN1CCN(C(=O)c2ccc(Nc3nc(N[C@H]4CC[C@@H](NC(=O)N(C)C)CC4)cnc3C(N)=O)cc2)CC1 [Example D-72, 3-{[4-(4-methylpiperazine-1-carbonyl)phenyl]amino}-5-{[(1s,4s)-4-[(dimethylcarbamoyl)amino]cyclohexyl]amino}pyrazine-2-carboxamide] | 1 to 10 µM | 1 to 10 µM |  | 
Cc1cc(Nc2nc(N3C[C@H](NC(=O)N(C)C)CC[C@@H]3C)cnc2C(N)=O)sn1 [Example D-74, 5-[(2S,5R)-5-[(dimethylcarbamoyl)amino]-2-methylpiperidin-1-yl]-3-[(3-methyl-1,2-thiazol-5-yl)amino]pyrazine-2-carboxamide] | 1 to 10 µM | > 10 µM |  | 
C[C@@H]1[C@H](NC(=O)c2ccc(C3CC3)cc2)CCCN1c1cnc(C(N)=O)c(Nc2ccc3nccn3c2)n1 [Example D-83, 5-[(2R,3R)-3-(4-cyclopropylbenzamido)-2-methylpiperidin-1-yl]-3-({imidazo[1,2-a]pyridin-6-yl}amino)pyrazine-2-carboxamide] | 0.01 to 0.1 µM | 1 to 10 µM |  | 
Cc1csc(Nc2nc(N3CCC[C@@H](NC(=O)c4ccc(C5CC5)cc4F)[C@H]3C)cnc2C(N)=O)n1 [Example D-63, 5-[(2R,3R)-3-(4-cyclopropyl-2-fluorobenzamido)-2-methylpiperidin-1-yl]-3-[(4-methyl-1,3-thiazol-2-yl)amino]pyrazine-2-carboxamide] | > 10 µM | > 10 µM |  | 
C[C@@H]1[C@H](NC(=O)c2ccc(C3CC3)cc2)CCCN1c1cnc(C(N)=O)c(Nc2ccc(OC(F)(F)F)cc2)n1 [Example D-42, 5-[(2R,3R)-3-(4-cyclopropylbenzamido)-2-methylpiperidin-1-yl]-3-{[4-(trifluoromethoxy)phenyl]amino}pyrazine-2-carboxamide] | 0.1 to 1 µM | > 10 µM |  | 
C[C@@H]1[C@H](NC(=O)c2ccc(C3CC3)cc2)CCCN1c1cnc(C(N)=O)c(Nc2cnn(CC3CCC(F)(F)CC3)c2)n1 [Example D-321, 5-[(2R,3R)-3-(4-cyclopropylbenzamido)-2-methylpiperidin-1-yl]-3-({1-[(4,4-difluorocyclohexyl)methyl]-1H-pyrazol-4-yl}amino)pyrazine-2-carboxamide] | 0.01 to 0.1 µM | 0.1 to 1 µM |  | 
C[C@@H]1[C@H](NC(=O)c2ccc(C3CC3)cc2F)CCCN1c1cnc(C(N)=O)c(Nc2nc3c(s2)CN(C)CC3)n1 [Example D-62, 5-[(2R,3R)-3-(4-cyclopropyl-2-fluorobenzamido)-2-methylpiperidin-1-yl]-3-({5-methyl-4H,5H,6H,7H-[1,3]thiazolo[5,4-c]pyridin-2-yl}amino)pyrazine-2-carboxamide] | 0.1 to 1 µM | > 10 µM |  | 
C[C@@H]1[C@H](NC(=O)c2ccc(C3CC3)cc2)CCCN1c1cnc(C(N)=O)c(Nc2ccc(CN3CCOCC3)cc2)n1 [Example D-316, 5-[(2R,3R)-3-(4-cyclopropylbenzamido)-2-methylpiperidin-1-yl]-3-{[4-(morpholin-4-ylmethyl)phenyl]amino}pyrazine-2-carboxamide] | 0.01 to 0.1 µM | 0.1 to 1 µM |  | 
C[C@H]1C[C@@H](NC(=O)c2ccc(C3CC3)cc2)CN(c2cnc(C(N)=O)c(Nc3cnn(C)c3)n2)C1 [Example D-30, 5-[(3R,5S)-3-(4-cyclopropylbenzamido)-5-methylpiperidin-1-yl]-3-[(1-methyl-1H-pyrazol-4-yl)amino]pyrazine-2-carboxamide] | 0.01 to 0.1 µM | 1 to 10 µM |  | 
